# Patent publication US20240344145A1, “PHARMACOGENOMICS SCORE TO MAKE DECISIONS ON THERAPY AUGMENTATION IN AML” (University of Florida Research Foundation, Incorporated, priority 2021, published 2024)
# System: pediatric AML patients
# Test: AML02 multicenter clinical trial, LDAC vs HDAC induction arms: MRD1, EFS and OS overall and by ACS10 score
# Assay type: in vivo, human
# Set-up: 3-year EFS / 4-year OS / 5-year OS / 4-year EFS / 5-year EFS / 3-year OS: unit not given here
# Conditions: for Event-free Survival 5 years / Overall Survival 5 years: AML02 cohort
# Method: One hundred and sixty-six pediatric AML patients treated under the multicenter AML02 clinical trial protocol were included in the study. Details of study design and clinical outcome have been described elsewhere. Briefly, patients with de novo AML were randomized to receive either high (3 g/m^2, given every 12 h on days 1, 3, and 5; this condition is designated “HDAC”) or low dose (100 mg/m^2 given every 12 h on days 1-10; this condition is designated “LDAC”) cytarabine along with daunorubicin (50 mg/m^2 on days 2, 4 and 6) and etoposide (100 mg/m^2 on days 2-6) as a first course of chemotherapy with subsequent treatment tailored to response and risk classification. For initial risk assignment, patients with cytogenetic translocations comprisingt [8;21] (e.g., translocation between chromosome 8 and 21), inv (16), ort [9;11] were classified as low-risk. Patients with features such as deletion of chromosome 7 (−7), presence of FLT3-ITD mutation (FLT-ITD), cytogenetic translocation comprisingt [6;9], megakaryoblastic leukemia (AMKL), treatment-related AML, or AML arising from MDS were classified as high-risk AML. Patients lacking any of the low or high-risk group features were provisionally classified as standard risk AML. Patient risk classifications were updated on the basis of minimal residual disease evaluations. Clinical endpoints used in this evaluation were defined as follows: i) Minimal residual disease after induction 1 (“MRD1”) (patients were defined as MRD positive if they had ≥1 leukemic cell per 1000 mononuclear bone marrow cells (≥0.1%); ii) Complete remission defined as trilineage hematopoietic recovery with less than 5% blasts in the marrow; iii) Event-free survival (“EFS”) defined as the time from study enrollment to induction failure, relapse, secondary malignancy, death, or study withdrawal for any reason, with event-free patients censored on the date of last follow-up; and iv) Overall survival (“OS”) defined as the time from study enrollment to death, with living patients censored on the date of last follow-up. St. Jude Institutional Review Board approved the study, and informed consent was obtained from parents/guardians and consents/assents from the individuals.
# The association of MRD1, EFS, and OS was evaluated with ACS10 scores in the AML02 discovery cohort and the AAML0531 validation cohort. The Kaplan-Meier method was used to estimate the EFS and OS probabilities for well-defined groups of patients. Cox regression models were used to associate ACS10 with EFS and OS and used logistic regression models to associate ACS10 with MRD1. The Wilcoxon rank-sum test and Kruskal-Wallis test were used to compare medians of numeric variables across groups. Chi-square tests and Fisher's exact test were used to evaluate the association among pairs of categorical variables. All p-values are two-sided. All statistical analyses were performed using R software (www.r-project.org).
# The multicenter AML02 clinical trial randomly assigned subjects to receive low dose ara-C (LDAC: 100 mg/m^2; n=91 patients) or high dose ara-C(HDAC: 3 g/m^2; n=75 patients) in combination with daunorubicin and etoposide as the first course of chemotherapy as described above in patient cohort section. Thus, the association of SNPs with outcome within each arm separately was also explored (Table 5).
# Given patients in AML02 cohort were randomized to receive low or augmented high dose of ara-C, this unique opportunity was leveraged to evaluate performance of ACS10 score within the different ara-C dose treatment arms (of note LDAC and HDAC arms had similar distribution of patients across, disease characteristics, risk group, cytogenetics, race, gender etc. Table 3). […]
# [1] = ACS10 score 0, risk-adjusted Cox model
# [2] = ACS10 score 1, risk-adjusted Cox model
# [3] = ACS10 score 2, risk-adjusted Cox model
# [4] = ACS10 score 3, risk-adjusted Cox model
# [5] = ACS10 score 4, risk-adjusted Cox model
# [6] = ACS10 score 5, risk-adjusted Cox model
# [7] = ACS10 score −1, risk-adjusted Cox model
# [8] = ACS10 score −2, risk-adjusted Cox model
# [9] = ACS10 score −3, risk-adjusted Cox model
# [10] = ACS10 score −5, risk-adjusted Cox model
# [11] = low ACS10 score (≤0) patients, AML02
# [12] = number of patients per arm, after induction 1, AML02 cohort
# [13] = patients with ACS10 score of +5, risk-adjusted Cox model
# [14] = patients with ACS10 score of −5, risk-adjusted Cox model
smiles,measurement,setting,value
"Nc1ccn([C@@H]2O[C@H](CO)[C@@H](O)[C@@H]2O)c(=O)n1 [LDAC, cytarabine]",3-year EFS,[1],0.5527
same,3-year OS,[1],0.7030
same,4-year EFS,[1],0.5391
same,4-year OS,[1],0.6960
same,5-year EFS,[1],0.5316
same,5-year OS,[1],0.6960
same,3-year EFS,[2],0.6541
same,3-year OS,[2],0.7604
same,4-year EFS,[2],0.6423
same,4-year OS,[2],0.7544
same,5-year EFS,[2],0.6357
same,5-year OS,[2],0.7544
same,3-year EFS,[3],0.7393
same,3-year OS,[3],0.8089
same,4-year EFS,[3],0.7296
same,4-year OS,[3],0.8039
same,5-year EFS,[3],0.7242
same,5-year OS,[3],0.8039
same,3-year EFS,[4],0.8073
same,3-year OS,[4],0.8489
same,4-year EFS,[4],0.7997
same,4-year OS,[4],0.8448
same,5-year EFS,[4],0.7955
same,5-year OS,[4],0.8448
same,3-year EFS,[5],0.8596
same,3-year OS,[5],0.8814
same,4-year EFS,[5],0.8539
same,4-year OS,[5],0.8781
same,5-year EFS,[5],0.8507
same,5-year OS,[5],0.8781
same,3-year EFS,[6],0.8988
same,3-year OS,[6],0.9074
same,4-year EFS,[6],0.8946
same,4-year OS,[6],0.9048
same,5-year EFS,[6],0.8922
same,5-year OS,[6],0.9048
same,3-year EFS,[7],0.4399
same,3-year OS,[7],0.6369
same,4-year EFS,[7],0.4255
same,4-year OS,[7],0.6289
same,5-year EFS,[7],0.4176
same,5-year OS,[7],0.6289
same,3-year EFS,[8],0.3251
same,3-year OS,[8],0.5632
same,4-year EFS,[8],0.3112
same,4-year OS,[8],0.5546
same,5-year EFS,[8],0.3037
same,5-year OS,[8],0.5546
same,3-year EFS,[9],0.2202
same,3-year OS,[9],0.4846
same,4-year EFS,[9],0.2083
same,4-year OS,[9],0.4756
same,5-year EFS,[9],0.2020
same,5-year OS,[9],0.4756
same,3-year EFS,[10],0.0743
same,3-year OS,[10],0.3280
same,4-year EFS,[10],0.0683
same,4-year OS,[10],0.3197
same,5-year EFS,[10],0.0652
same,5-year OS,[10],0.3197
same,Event-free Survival 5 years,High ACS10 score group,0.712 ± 0.063
same,Overall Survival 5 years,High ACS10 score group,0.829 ± 0.052
same,Event-free Survival 5 years,Low ACS10 score group,0.421 ± 0.08
same,Overall Survival 5 years,Low ACS10 score group,0.579 ± 0.08
same,5 year EFS,[11],42%
same,five-year OS,[11],57%
same,MRDIND1 Negative (<0.1%),[12],49^+
same,MRDIND1 Positive (>=0.1%),[12],38^+
same,"3-year EFS, model estimate",[13],89.9%
same,"3-year OS, model estimate",[13],90.7%
same,"3-year EFS, model estimate",[14],7.4%
same,"3-year OS, model estimate",[14],32.8%
same,Event-free Survival 5 years,"probability, whole arm",0.591 ± 0.0518
same,Overall Survival 5 years,"probability, whole arm",0.724 ± 0.047
same,"EFS HR, low-ACS10 vs high-ACS10 score","within arm, AML02",2.81
same,"OS HR, low-ACS10 vs high-ACS10 score","within arm, AML02",2.98
same,EFS HR for each one-point increase in ACS10,"within arm, risk-adjusted Cox model, AML02",0.70
